The compounds below were run against T1, human capsaicin receptor (Homo sapiens, UniProt Q8NER1) (assay: Calcium mobilization assay, determination of antagonist activity (Example 6)). Conditions: 50% decrease in fluorescence response of cells expressing human capsaicin receptor exposed to capsaicin.
T1 construct: pBK-CMV expression construct encoding the full length human capsaicin receptor; expressed in transfected cells
Type: cell-based
How it was run: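 HEK293 cells stably expressing full-length human capsaicin receptor, Fluo-3 AM loaded, preincubated with compound 0.5–6 h at room temperature in KRH buffer pH 7.4. Challenged with capsaicin at its EC50; FLIPR fluorescence read. IC50 is concentration halving the capsaicin-induced calcium response.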

T1 sequence (Q8NER1 whole entry): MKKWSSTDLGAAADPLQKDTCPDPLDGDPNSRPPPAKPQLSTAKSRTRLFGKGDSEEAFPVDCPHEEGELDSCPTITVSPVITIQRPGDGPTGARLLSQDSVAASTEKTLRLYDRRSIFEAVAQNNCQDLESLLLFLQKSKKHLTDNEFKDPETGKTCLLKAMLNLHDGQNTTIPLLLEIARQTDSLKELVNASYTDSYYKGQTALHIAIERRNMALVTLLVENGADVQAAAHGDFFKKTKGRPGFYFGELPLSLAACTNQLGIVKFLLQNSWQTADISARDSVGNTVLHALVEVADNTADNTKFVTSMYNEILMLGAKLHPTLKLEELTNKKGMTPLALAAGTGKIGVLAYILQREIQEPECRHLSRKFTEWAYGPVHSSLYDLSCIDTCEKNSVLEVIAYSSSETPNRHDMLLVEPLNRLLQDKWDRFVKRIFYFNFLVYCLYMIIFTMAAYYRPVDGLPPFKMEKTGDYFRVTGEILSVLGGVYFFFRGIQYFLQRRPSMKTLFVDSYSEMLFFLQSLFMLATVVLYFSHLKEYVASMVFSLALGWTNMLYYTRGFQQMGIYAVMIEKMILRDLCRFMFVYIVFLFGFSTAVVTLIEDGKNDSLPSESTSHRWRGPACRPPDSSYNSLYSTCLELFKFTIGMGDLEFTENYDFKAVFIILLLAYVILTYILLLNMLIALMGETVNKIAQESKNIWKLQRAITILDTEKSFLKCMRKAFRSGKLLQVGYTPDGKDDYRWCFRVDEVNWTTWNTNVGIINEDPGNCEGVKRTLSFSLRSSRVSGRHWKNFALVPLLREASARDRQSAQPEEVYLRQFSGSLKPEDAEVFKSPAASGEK

Row | Compound | IC50 [nM]
1 | C[C@@H]1CN(c2ncccc2C(F)(F)F)CCN1c1nc(Cl)nc(Nc2ccc(C(C)(C)C)cc2)n1 [Compound 3, (4-tert-Butyl-phenyl)-{4-chloro-6-[2-methyl-4-(3-trifluoromethyl-pyridin-2-yl)-piperazin-1-yl]-[1,3,5]triazin-2-yl}-amine (R)] | ≤ 1000
2 | CCCCNc1nc(Nc2ccc(C(F)(F)F)cc2)nc(N2CCN(c3ncccc3Cl)C[C@H]2C)n1 [Compound 19, N-Butyl-6-[4-(3-chloro-pyridin-2-yl)-2-methyl-piperazin-1-yl]-N′-(4-trifluoromethyl-phenyl)-[1,3,5]triazine-2,4-diamine (R)] | ≤ 1000
3 | C[C@@H]1CN(c2ncccc2C(F)(F)F)CCN1c1nc(Nc2ccc(C(F)(F)F)cc2)nc(OCc2ccccc2C(F)(F)F)n1 [Compound 9] | ≤ 1000
4 | CC(C)CNc1nc(Nc2ccc(C(F)(F)F)cc2)nc(N2CCN(c3ncccc3Cl)C[C@H]2C)n1 [Compound 40, 6-[4-(3-Chloro-pyridin-2-yl)-2-methyl-piperazin-1-yl]-N-isobutyl-N′-(4-trifluoromethyl-phenyl)-[1,3,5]triazine-2,4-diamine (R)] | ≤ 1000

Now from value to compound:

Row | IC50 [nM] | Compound
5 | ≤ 1000 | COc1cccc(Nc2nc(N3CCOCC3)cc(N3CCN(c4ncccc4C(F)(F)F)CC3)n2)c1 [Compound 88, (3-Methoxy-phenyl)-{4-morpholin-4-yl-6-[4-(3-trifluoromethyl-pyridin-2-yl)-piperazin-1-yl]-pyrimidin-2-yl}-amine]
6 | ≤ 1000 | CCN(CC)c1nc(Nc2ccc(F)c(F)c2)nc(N2CCN(c3ncccc3S(C)(=O)=O)C[C@H]2C)n1 [Compound 102, N-(3,4-Difluoro-phenyl)-N′,N′-diethyl-6-[4-(3-methanesulfonyl-pyridin-2-yl)-2-methyl-piperazin-1-yl]-[1,3,5]triazine-2,4-diamine (R)]
7 | ≤ 1000 | CCN(CC)Cc1nc(Nc2ccc(F)c(F)c2)cc(N2CCN(c3ncccc3C(F)(F)F)CC2)n1 [Compound 111, {2-Diethylaminomethyl-6-[4-(3-trifluoromethyl-pyridin-2-yl)-piperazin-1-yl]-pyrimidin-4-yl}-(3,4-difluoro-phenyl)-amine]
8 | ≤ 1000 | CC(C)c1ccc(-c2nc(Nc3ccc(C(F)(F)F)cc3)nc(N3CCN(c4ncccc4Cl)C[C@H]3C)n2)cc1 (stereo in doubt) [Compound 114, [4-[4-(3-Chloro-pyridin-2-yl)-2-methyl-piperazin-1-yl]-6-(4-isopropyl-phenyl)-[1,3,5]triazin-2-yl]-(4-trifluoromethyl-phenyl)-amine]
9 | ≤ 1000 | FC(F)(F)c1ccc(Nc2nc(N3CCOCC3)nc(N3CCN(c4ncccc4Cl)CC3)n2)cc1 [Compound 96, {4-[4-(3-Chloro-pyridin-2-yl)-piperazin-1-yl]-6-morpholin-4-yl-[1,3,5]triazin-2-yl}-(4-trifluoromethyl-phenyl)-amine]
10 | ≤ 1000 | CCN(CC)c1nc(Nc2ccc(F)cc2)nc(N2CCN(c3ncccc3Cl)CC2)n1 [Compound 90, 6-[4-(3-Chloro-pyridin-2-yl)-piperazin-1-yl]-N,N-diethyl-N′-(4-fluoro-phenyl)-[1,3,5]triazine-2,4-diamine]

From patent US20070043049A1, “Substituted heterocyclic diarylamine analogues” (Neurogen Corporation, priority 2003, published 2007)
